From US20100196365A1, “USE OF IMIDAZOQUINOLINES FOR THE TREATMENT OF EGFR DEPENDENT DISEASES OR DISEASES THAT HAVE ACQUIRED RESISTANCE TO AGENTS THAT TARGET EGFR FAMILY MEMBERS” (priority 2007, published 2010)

Assays:
[1] = tested on: BT474 tumors; assay: antitumor activity against s.c. BT474 xenografts; type: in vivo, mice; details: BT474 subcutaneous xenografts, 45 mg/kg, po, once per day (FIG. 6)
Description: (§1) ErB-B2 (HER2) is often overexpressed in breast and ovarian cell lines.

[2] = tested on: panel of breast tumor cell lines; assay: antiproliferative activity in a panel of breast cancer cell lines (Methylene blue viable cell detection assay); type: cell-based, human
Experimental: The indicated cell lines are incubated with increasing amount of Compound A, and effect on the proliferation assessed with a Methylene blue viable cell detection assay. The cell lines indicated with a red asterisk are the ones in which cell death is observed (i.e. for which the absorbance observed for treated cells was lower than the original inoculum).
as §1

[3] = tested on: NCI-H358 cell line; assay: proliferation assay (methylene blue assay) with NCI-H358 tumor cells; type: cell-based; details: Homo sapiens, read-out: Growth Inhibitory 50 (GI50)
[4] = tested on: NCI-H1975 cell line; assay: proliferation assay in EGFR inhibitor resistant NCI-H1975 cell line; type: cell-based; details: Homo sapiens; NCI-H1975 cell line (HER1 T790M)
[5] = tested on: NCI-H1975 tumors; details: for in vivo effect on tumor growth: s.c. NCI-H1975 tumors, athymic mice, p.o. (FIG. 3)
Experimental: Non small cell lung carcinoma cell lines with amplified EGFR, but refractory to EGFR inhibition therapy, are valuable models to test the sensitivity of PI3K inhibitors like the compounds of formula I in such genetic background. […] The in vivo antitumor activity of PI3K inhibitors like the compounds of formula I is tested against this EGFR driven and inhibitor resistant tumor model (FIG. 3).

SMILES	in vivo antitumor effect [1]	GI50 ([2]; Homo sapiens, panel of breast tumor cell lines containing or not ErbB2 amplification, read-out: median GI50) [nM]	cell death ([2]; cell lines that overexpressed ErbB2 (FIG. 5))	GI50 [3] [nM]	GI50 [4] [nM]	tolerability (body weight, control vs treatment groups) ([5]; mouse, in vivo)	in vivo effect on tumor growth [5]
Cn1c(=O)n(-c2ccc(C(C)(C)C#N)cc2)c2c3cc(-c4cnc5ccccc5c4)ccc3ncc21 [Compound A, 2-methyl-2-[4-(3-methyl-2-oxo-8-quinolin-3-yl-2,3-dihydro-imidazo[4,5-c]quinolin-1-yl)-phenyl]-propionitrile]	tumor regression	11.1	induces cell death	31	11.4	well tolerated	causes in vivo tumor growth inhibition
CCN1CCN(Cc2ccc(-c3cc4c(N[C@H](C)c5ccccc5)ncnc4[nH]3)cc2)CC1 [NVP-AEE788, reference compound]	–	–	–	–	–	–	no significant inhibition on tumor growth
C#Cc1cccc(Nc2ncnc3cc(OCCOC)c(OCCOC)cc23)c1 [erlotinib, reference compound]	–	–	–	–	–	–	no significant inhibition on tumor growth
